Consider 110 compounds from a melting point compilation (Tetko et al.).

Usually melting point stands for the temperature, or range, at which the solid turns liquid. Compound `CC(=O)Oc1ccc2ccccc2c1` showed a melting point of 69 °C.
For `CCCCCCCCCC(C)CC` (stereo not given) the value was -53 °C.
The value for `CN1CCOc2cc(Br)ccc21` was 47 to 49 °C.
For the compound `NNC(=O)c1cccnc1`, the melting point was found to be 162 °C.
As for `c1ccc(Cn2cncn2)cc1`, the melting point is 49 °C.
Take `Cc1ccc(C)c(C(=O)N(NC(=O)c2ccccc2)C(C)(C)C)c1`: the melting point was determined as 198 °C.
In the case of `CCCCCCCCCCCCCCC=O`, the melting point came out at 24.5 °C.
Turning to `C/C(=N\Nc1ccc([N+](=O)[O-])cc1[N+](=O)[O-])c1ccccc1O`, the melting point turned out to be 259 °C.
For `COc1ccccc1C1CCN(c2ccc(C=O)cc2[N+](=O)[O-])CC1` the value was 116 to 118 °C; for `CC(C=CC=C(C)C=CC1=C(C)CC(O)CC1(C)C)=CC=CC=C(C)C=CC=C(C)C1C=C2C(C)(C)CC(O)CC2(C)O1` (stereo not given), 184 °C; for `CN(C)c1ccc(C=C/C(=N\Nc2ccccc2)c2ccccc2)cc1`, 127 to 128 °C.
The value for `CC(C)(C)N(NC(=O)c1ccccc1)C(=O)c1ccccc1Br` was 196 °C; that for `CN(C)S(F)(F)F` was -78.7 °C.
`CC12CCC(C(OC(=O)c3ccc([N+](=O)[O-])cc3)=CC1=O)C2(C)C` (stereo not given) came in with a melting point of 121 °C.
The value for `O=C(Cl)c1csc(-c2ccc(C(F)(F)F)cc2)n1` was 96 to 98 °C; that for `CC(C)OC(=O)COc1cc(Cl)c(Cl)cc1Cl` was 45 °C.
For the compound `Cn1ccc(=O)c2ccccc21`, the melting point is 152 °C.
Consider `NNC(=O)c1cccc(O)c1`, for which the melting point turned out to be 158 °C.
For `c1cc2ccc3cccc4ccc(c1)c2c34`, the melting point was 153 °C.
The value for `NNC(=O)CC(=O)NN` was 154 °C; that for `CCOC(=O)C(C#N)=C(SC)Sc1ncccn1` was 103 to 105 °C.
For `COc1cc(C(=O)Nc2nnc(-c3ccc(Cl)cc3)o2)cc(OC)c1OC` the value was 261 to 263 °C; for `N#CC1=C(C#N)C(=O)C(NCCCc2ccccc2)=C(Cl)C1=O`, 179 °C; for `CCCBr`, -110 °C.
`CCOC(=O)C(=O)C=CN(C)C` returned a melting point of 38 °C.
The value for `Cc1ccc(C)c(CCC(C)(C)C(=O)O)c1` was 78 °C; that for `O=C(O)CCc1ccc(Cl)c(Cl)c1` was 97 to 99 °C.
`CCOC(=O)C1(S(=O)(=O)c2ccc(C)cc2)CC1` had a melting point of 75.5 °C.
`ClC(C(Cl)(Cl)Cl)C(Cl)(Cl)Cl` had a melting point of 11 °C.
The compound `COc1ccc(C/C(=N\O)C(=O)O)cc1` showed a melting point of 159 °C.
`CCCCCCCCCCCCCCN` yielded a melting point of 83.1 °C.
The value for `CNc1nc(NC(C)C)nc(SC)n1` was 85 °C; that for `CCOC(O)C(OC(C)=O)C(OC(C)=O)C(OC(C)=O)C(COC(C)=O)OC(C)=O` (stereo not given) was 132 °C.
The value for `CN1C(CC(=O)c2ccccc2)CCCC1CC(O)c1ccccc1` (stereo not given) was 130 °C; that for `Cn1c(=O)c(C2=NNC(=O)C2=CCc2ccccc2)c(O)c2ccccc21` was 249 °C; that for `CN(C)c1cccc2cccc(N(C)C)c12` was 49 °C.
With `CCCCCC1C(=O)CCC1CC(=O)OC` (stereo not given), the melting point was -10 °C.
The value for `NC(CC(=O)O)C(F)(F)F` (stereo not given) was 185 to 190 °C; that for `O=Cc1ccccc1Sc1ccc(Cl)cc1` was 73 °C; that for `CCCc1ccc(C(C)=NO)cc1` was 48 to 50 °C.
In the case of `ON=C1C2CC3CC(C2)CC1C3`, the melting point fell in the range of 150 to 151 °C.
For `CN(C=O)c1ccc(C(=O)O)cc1` the value was 217 to 221 °C; for `CCC(C)c1ccccc1O` (stereo not given), 16 °C.
`CC1NC(=O)C(C)NC1=O` (stereo not given) showed a melting point of 274 to 278 °C.
Turning to `C=CC1(C)CCC2C(=CCC3C(C)(C(=O)O)CCCC23C)C1` (stereo not given), the melting point was 160 °C.
Compound `COc1ccc(C2(C)CCc3oc4c(Br)cc(Br)cc4c3-c3oc(C)cc32)cc1` (stereo not given) returned a melting point of 165 °C.
The compound `O=C1C=C(NCc2cccc(Cl)c2)C(=O)c2ccccc21` showed a melting point of 191 °C.
The compound `CC1(C)CCC(C)(C)C1` displayed a melting point of -88.4 °C.
For `S=C=Nc1ccc(N2CCOCC2)nc1` the value was 121 to 122 °C.
The value for `O=C1NC(=S)NC(=O)C1=Cc1ccc(Br)o1` was 215 °C.
The value for `COC(=O)c1sc(SC)c(S(=O)(=O)C(C)C)c1I` was 193 to 195 °C.
The compound `COc1cc2c(cc1OC)C1(O)C(=O)c3ccc4c(c3OC1CO2)C=CC(C)(C)O4` (stereo not given) returned a melting point of 198 °C.
For `CC(O)CCc1ccc2c(c1)NC(C)CC2` (stereo not given) the value was 79 °C.
Consider `O=[N+]([O-])c1cc(N(CCO)CCO)ccc1NCCO`, for which the melting point came out at 95.5 °C.
With `c1csc(-c2cc[nH]n2)c1`, the melting point fell in the range of 97 to 99 °C.
For `COc1ccc(OC)c(S(N)(=O)=O)c1` the value was 150 to 152 °C.
Compound `CCOC(=O)c1c(C)[nH]c(=O)[nH]c1=S` had a melting point of 150 °C.
In turn, `CC1(C2CCC3C4CCC5CC(O)CCC5(C)C4CCC32C)OCCO1` (stereo not given) yielded a melting point of 174 °C.
The value for `O=C(OCCc1ccc(CCOC(=O)c2ccccc2)cc1)c1ccccc1` was 137 °C; that for `O=c1ccc(=O)[nH][nH]1` was 306 °C.
The value for `Cc1c(NC(=O)C(C(F)(F)F)C(F)(F)F)c(=O)n(-c2ccccc2)n1C` was 237 to 239 °C.
The value for `O=C(CCc1ccccc1)/C(=N\O)c1ccccc1` was 129 to 130 °C.
As for `CNC(=NO)c1cc(C(C)(C)C)c(O)c(C(C)(C)C)c1`, the melting point fell in the range of 200 to 201 °C.
As to `CCOC(=O)C=C(C)N`, the melting point was in the range of 33 to 35 °C.
In the case of `CC(C)CCCC(C)O` (stereo not given), the melting point is -105 °C.
For the compound `COc1cc(C=C(C(=O)O)C(=Cc2cc(OC)c(OC)c(OC)c2)C(=O)O)cc(OC)c1OC`, the melting point was 229 °C.
The value for `Sc1nnc(-c2ccco2)n1-c1ccc(OCc2ccccc2)cc1` was 236 to 238 °C; that for `Brc1cc(Br)c(Br)c(Br)c1` was 99.5 °C; that for `CC(=O)Nc1ccccc1C#Cc1ccccc1` was 118 to 119 °C.
For `C(=NCCN=Cc1ccccc1)c1ccccc1` the value was 52 to 54 °C; for `CC(C)CC(O)C(=O)O` (racemic), 75 to 78 °C; for `CCCCOc1ccc(NC(=O)C(C(F)(F)F)C(F)(F)F)cc1`, 172 °C.
For `CC1(C)OCC(CO)O1` (stereo not given) the value was -27 °C; for `Oc1ccnc2c(C(F)(F)F)cccc12`, 172 °C; for `CCOC(=O)C(C)(/C=C1\C(=O)C2(C)CCC1C2(C)C)/C=C1\C(=O)C2(C)CCC1C2(C)C` (stereo not given), 118 °C.
The compound `N#Cc1ccccc1CCl` gave a melting point of 61 °C.
With `CCCCCc1ccc(O)cc1O`, the melting point was determined as 72.5 °C.
The value for `OC[C@H]1O[C@@H](n2cnc3c(Cl)ncnc32)[C@H](O)[C@@H]1O` was 161 to 163 °C.
Turning to `O=C(O)CCn1ccnc1`, the melting point fell in the range of 147 to 149 °C.
`NC=S` registered a melting point of 26.5 °C.
The compound `Cc1ccc2nc(-c3ccc(N)cc3)sc2c1` came in with a melting point of 195 °C.
The value for `O=c1cc[nH]c(=O)o1` was 156 °C; that for `Nc1ccc(CO)cc1` was 61 °C; that for `O=C(C(=O)c1ccc([N+](=O)[O-])cc1)c1ccccc1` was 141 to 143 °C.
The value for `Nc1c(Cl)cc(C(=O)O)cc1Cl` was 292 °C.
In turn, `CON(C)C(=O)Nc1ccc(Br)cc1` gave a melting point of 95 °C.
As for `CC1(C)CC(=O)C2=C(C1)Nc1c(ccc3ccccc13)C2c1ccc(Cl)cc1Cl` (stereo not given), the melting point was determined as 222 °C.
The value for `CC(C)(C)c1ncc(C(=O)Nc2cc(C(F)(F)F)cc(C(F)(F)F)c2)nc1Cl` was 99 °C; that for `Fc1cccc(C(F)(F)F)c1` was -81.5 °C; that for `O=C(OC1CCCCC1)c1ccccc1C(=O)OC1CCCCC1` was 66 °C.
The value for `O=C1c2cc([N+](=O)[O-])ccc2-c2ccc([N+](=O)[O-])cc21` was 294 °C.
`N[C@H](C(=O)O)c1ccc(F)cc1` yielded a melting point of 300 °C.
Consider `COC(=O)[C@]1(O)CC2=C(c3c1cc(OC)nc3Cl)N(C)CCC2`, for which the melting point stood at 153 °C.
Compound `COc1cc(C(=O)N2CCOCC2)cc(OC)c1OC` came in with a melting point of 121 °C.
The value for `Nc1c(Cl)cncc1Cl` was 161 °C; that for `C#CC1(O)CCC2C3CCC4=CC(=O)CCC4C3CCC21C` (stereo not given) was 204 °C.
`N#CCCNC1CCCCC1` returned a melting point of 122 to 124 °C.
The value for `N#CCCCOc1ccccc1` was 45.5 °C.
In the case of `CCC(C)OC` (stereo not given), the melting point was -100 °C.
The value for `CSC(SC)=C(C#N)C(=O)NCc1ccccc1` was 81 °C.
On to `Clc1ccc(Cc2c(N=Cc3ccccc3)n[nH]c2N=Cc2ccccc2)cc1`, for which the melting point was in the range of 180 to 182 °C.
For the compound `Clc1cccc(C(Cl)(Cl)Cl)c1`, the melting point came to 0.6 °C.
For `Cc1c(-c2ccccc2)sc2ncnc(Cl)c12` the value was 133 to 135 °C; for `Nc1c(C=O)c(=O)oc2ccccc12`, 267 to 268 °C.
The value for `S=C1NC2=C(CCCC2=Cc2ccccc2)C(c2ccccc2)N1` (stereo not given) was 190 to 192 °C.
On to `CC1OC(=O)C2CC3CCCCC3C(C=CC3CCCC(C)N3C)C12` (single isomer, unassigned; (+)), for which the melting point lay in the range of 130 to 136 °C.
The value for `O=C1C=CC(=O)c2c(O)ccc(O)c21` was 237 °C; that for `NC(CCP(=O)(O)O)C(=O)O` (racemic) was 225 to 228 °C.
The value for `Cc1cc(/C=C/c2ccccc2N)c([N+](=O)[O-])cc1[N+](=O)[O-]` was 175 °C.
The value for `CC(=O)c1cc2c(cc1C)C(C)(C)C(C)CC2(C)C` (stereo not given) was 54.5 °C.
